Key:
METTL3 = METTL3 (Homo sapiens, UniProt Q86U44); test: Immunoblotting (Western blot) degradation of METTL3 in MV4-11 cells; assay type: cell-based; parameters: Following treatment, total cellular proteins were extracted using RIPA buffer; endogenous in cells; host or cells: MV4-11 (MV4.11) human AML cells, ATCC
Experimental: (§1) All cell lines were maintained under standard conditions in a humidified atmosphere at 37 °C with 5% CO₂.
(§2) Western Blot Analysis: Following treatment, total cellular proteins were extracted using RIPA buffer (Auragene, Changsha, China). […] After washing, membranes were incubated with horseradish peroxidase (HRP)-conjugated secondary antibodies (anti-rabbit or anti-mouse IgG; 1:5000) for 2 hours at room temperature. Protein bands were visualized using an enhanced chemiluminescence (ECL) detection kit (Amersham Pharmacia), following the manufacturer's protocol. Band intensities were quantified using ImageJ software and normalized to ACTIN as a loading control. Data was analyzed using GraphPad Prism 9.

MOLM13 cells = test: Cell viability assay (CCK-8) in MOLM13 cells; assay type: cell-based, human; details: CCK-8, normalized to vehicle
Experimental: We proceeded to evaluate the cytotoxic activities of ZW30441 in AML cell lines by treating MOLM13 and MV4-11 cells with ZW30441 in increasing doses for 72 h.
Cell Lines and Culture Conditions: The human acute myeloid leukemia (AML) cell lines MOLM13 and MV4.11, as well as the HEK 293T epithelial kidney cell line, were obtained from the American Type Culture Collection (ATCC, USA). AML cells were maintained in RPMI-1640 medium (Gibco, USA) supplemented with 10% fetal bovine serum (FBS) and 1% penicillin-streptomycin (Sigma, Germany). HEK 293T cells were cultured in complete Dulbecco’s Modified Eagle Medium (DMEM) containing 10% FBS and 1% penicillin-streptomycin (Sigma). All cell lines were maintained under standard conditions in a humidified atmosphere at 37 °C with 5% CO₂.
Cell Viability Assay: AML cells were seeded in 96-well plates at a density of 5,000 cells per well and treated with varying concentrations of ZW30441 or vehicle (dimethyl sulfoxide, DMSO). Each condition was performed in triplicate. After the treatment period, cell viability was measured using the Cell Counting Kit-8 (CCK-8; APExBIO, USA, Cat# K1018) according to the manufacturer’s instructions. Absorbance was recorded at 450 nm using a SPECTROstar microplate reader (BMG LABTECH, USA).

METTL14 = molecular target: T1, METTL14 (Homo sapiens, UniProt Q9HCE5); test: Immunoblotting (Western blot) degradation of METTL14 in MV4-11 cells; assay type: cell-based
T1 construct: Following treatment, total cellular proteins were extracted using RIPA buffer; endogenous in cells; host or cells: MV4-11 (MV4.11) human AML cells, ATCC
T1 sequence (Q9HCE5 whole entry): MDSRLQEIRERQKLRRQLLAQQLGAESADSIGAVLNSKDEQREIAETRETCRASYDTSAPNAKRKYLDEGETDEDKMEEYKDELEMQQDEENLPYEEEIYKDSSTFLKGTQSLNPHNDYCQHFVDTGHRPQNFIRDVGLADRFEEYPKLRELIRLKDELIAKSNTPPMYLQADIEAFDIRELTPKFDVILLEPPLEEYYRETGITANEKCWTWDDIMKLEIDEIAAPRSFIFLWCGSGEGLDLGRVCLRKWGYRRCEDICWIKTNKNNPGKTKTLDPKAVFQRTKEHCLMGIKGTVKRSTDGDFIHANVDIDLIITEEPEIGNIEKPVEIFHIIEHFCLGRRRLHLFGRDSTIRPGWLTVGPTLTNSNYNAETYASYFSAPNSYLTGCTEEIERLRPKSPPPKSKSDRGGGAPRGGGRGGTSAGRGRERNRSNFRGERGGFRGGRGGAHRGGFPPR
T1 sequence (Q86U44 2-580 partner): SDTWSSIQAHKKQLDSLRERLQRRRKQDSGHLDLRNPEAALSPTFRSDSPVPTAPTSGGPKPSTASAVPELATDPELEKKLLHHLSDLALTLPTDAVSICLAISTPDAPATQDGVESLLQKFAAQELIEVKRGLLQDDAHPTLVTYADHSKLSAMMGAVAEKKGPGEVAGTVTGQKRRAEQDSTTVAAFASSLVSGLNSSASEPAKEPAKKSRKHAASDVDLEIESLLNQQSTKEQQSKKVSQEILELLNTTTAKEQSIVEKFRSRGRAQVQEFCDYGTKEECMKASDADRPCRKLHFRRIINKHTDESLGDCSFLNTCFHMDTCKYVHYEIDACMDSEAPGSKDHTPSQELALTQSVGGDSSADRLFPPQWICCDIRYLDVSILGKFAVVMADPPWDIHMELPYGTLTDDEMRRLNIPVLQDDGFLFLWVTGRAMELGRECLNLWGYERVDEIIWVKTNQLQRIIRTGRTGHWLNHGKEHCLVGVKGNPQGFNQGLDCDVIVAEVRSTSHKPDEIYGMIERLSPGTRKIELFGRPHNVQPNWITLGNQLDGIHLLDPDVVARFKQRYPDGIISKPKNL
Experimental: as §1, §2

METTL3-METTL14 complex = molecular target: T2, METTL3-METTL14 complex (Homo sapiens, UniProt Q86U44); test: Washout experiment in MV4-11 cells, Western blot; assay type: cell-based; details: 1 µM for 20 h, then drug withdrawal 0 to 24 h
T2 construct: endogenous in cells; host or cells: MV4-11 human AML cells, ATCC
T2 sequence (Q86U44 2-580 limits assumed): as the sequence (Q86U44 2-580 partner) above
T2 sequence (Q9HCE5 whole entry partner): as the sequence (Q9HCE5 whole entry) above
Experimental: To further characterize this compound, MV4-11 AML cells were treated with ZW30441 across a range of concentrations for 24 h.
Fig. 3 ZW30441 induced degradation of METTL3 and METTL14 in a dose- and time-dependent manner. […] METTL3 and METTL14 protein levels were normalized against ACTIN and plotted for DC50 and Dmax determination (right). B The levels of METTL3 and METTL14 protein in MV4-11 cells were analyzed by Western blots after the treatment of 1 µM of ZW30441 for various durations. C METTL3 and METTL14 protein levels were analyzed by Western blots in MV4-11 cells after treatment with 1 µM of ZW30441 for 20 h followed by drug withdrawal and cultured without ZW30441 for 0 to 24 h, as indicated TEXT PRINTED IN THE PICTURE: (A) ZW30441: METTL3 levels: DC50=0.44 uM; METTL3 levels: Dmax= 68.7%; METTL14 levels: DC50=0.13 uM; METTL14 levels: Dmax= 74.1% DOUBTS OF THE COPYIST ABOUT THIS PICTURE: ZW30441, panel A, axis title of the right plot: last letter unclear, 'METTL14 levels' or 'METTL14 levela'
Western Blot Analysis: Following treatment, total cellular proteins were extracted using RIPA buffer (Auragene, Changsha, China). Equal amounts of protein were separated by 12% SDS-PAGE and transferred onto PVDF membranes (Thermo Fisher, USA, LC2002). […] Band intensities were quantified using ImageJ software and normalized to ACTIN as a loading control. Data was analyzed using GraphPad Prism 9. […]

[1] = MV4-11 cells, 0.3 µM, 24 h, immunoblotting, nd = no degradation
[2] = MV4-11 cells, 1.0 µM, 24 h, immunoblotting, nd = no degradation
[3] = MV4-11 cells, 24 h, Western blot normalized against ACTIN
[4] = MV4-11 cells, time course at 1 µM

Sequence of METTL3 (Q86U44 2-580 limits assumed): as the sequence (Q86U44 2-580 partner) above
Sequence of METTL3 (Q9HCE5 whole entry partner): as the sequence (Q9HCE5 whole entry) above

**Q.** `CC1(C)CCN(Cc2cc(F)c(N3CC(=O)NC4(CCN(c5cc(NCCCCCCCCCC(=O)N6CCN(c7ccc8c(c7)CN(C7CCC(=O)NC7=O)C8=O)CC6)ncn5)CC4)C3)cc2F)CC1` (stereo not shown) [Compound 4j, 3-(5-(4-(10-((6-(4-(4-((4,4-dimethylpiperidin-1-yl)methyl)-2,5-difluorophenyl)-2-oxo-1,4,9-triazaspiro[5.5]undecan-9-yl)pyrimidin-4-yl)amino)decanoyl)piperazin-1-yl)-1-oxoisoindolin-2-yl)piperidine-2,6-dione] was tested. Which Dmax (METTL3; MV4-11, MV4-11 cells, 24 h) did it give?
**A.** The Dmax was 80%.

**Q.** What about the “% reduction in MV4-11 cells, 0.3 µM, METTL3” value (METTL3; [1]) of the same compound?
**A.** The value was 58%.

**Q.** What about the “% reduction in MV4-11 cells, 1.0 µM, METTL3” value (METTL3; [2]) of the same compound?
**A.** Its value is 81%.

**Q.** And the DC50 (METTL3; [3])?
**A.** The DC50 was 440 nM.

**Q.** What about the “time of maximum degradation of METTL3” value (METTL3; [4]) of the same compound?
**A.** The value was 20 h.

**Q.** And the EC50 (MOLM13 cells; 72 h, listed as ZW30441)?
**A.** Its EC50 is 1020 nM.

**Q.** What about the EC50 (MOLM13 cells; Homo sapiens, MOLM-13, 72 h) of the same compound?
**A.** Its EC50 is 1020 nM.

**Q.** And the Dmax (METTL14; MV4-11, MV4-11 cells, 24 h)?
**A.** Its Dmax is 65%.

**Q.** And the “% reduction in MV4-11 cells, 0.3 µM, METTL14” value (METTL14; [1])?
**A.** The value was 56%.

**Q.** And the “% reduction in MV4-11 cells, 1.0 µM, METTL14” value (METTL14; [2])?
**A.** Its value is 77%.

**Q.** And the DC50 (METTL14; [3])?
**A.** The DC50 was 130 nM.

**Q.** And the “time of maximum degradation of METTL14” value (METTL14; [4])?
**A.** Its value is 20 h.

**Q.** And the “duration of degradation after removal of compound (washout)” value (METTL3-METTL14 complex)?
**A.** Its value is “around 24 h”.

From paper PMC12615518, “Discovery of CRBN-recruiting PROTAC degraders of the METTL3-METTL14 complex” (Medicinal Chemistry Research, 2025)
